# Molecular target: human RIP1 kinase domain (2-375) (Homo sapiens (Human), UniProt Q13546)
# Test: biochemical
# Assay type: biochemical
# Conditions: Table 5; apparent Ki (Morrison tight-binding fit); 50 nM RIP1 kinase domain, 50 uM ATP, 2 hours incubation; read-out: Ki
# Summary of the method: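 Ki^app comes from Morrison tight-binding fits of fractional activity versus compound concentration. Activity was read as ADP production, via tracer displacement lowering fluorescence polarization (633 nm laser). Conditions: 2 h, 50 nM insect-cell-expressed enzyme, 50 uM ATP, 30 mM MgCl2, 1 mM DTT, 0.5% DMSO, pH 7.5 Hepes.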
# human RIP1 kinase domain (2-375), sequence (Q13546 2-375): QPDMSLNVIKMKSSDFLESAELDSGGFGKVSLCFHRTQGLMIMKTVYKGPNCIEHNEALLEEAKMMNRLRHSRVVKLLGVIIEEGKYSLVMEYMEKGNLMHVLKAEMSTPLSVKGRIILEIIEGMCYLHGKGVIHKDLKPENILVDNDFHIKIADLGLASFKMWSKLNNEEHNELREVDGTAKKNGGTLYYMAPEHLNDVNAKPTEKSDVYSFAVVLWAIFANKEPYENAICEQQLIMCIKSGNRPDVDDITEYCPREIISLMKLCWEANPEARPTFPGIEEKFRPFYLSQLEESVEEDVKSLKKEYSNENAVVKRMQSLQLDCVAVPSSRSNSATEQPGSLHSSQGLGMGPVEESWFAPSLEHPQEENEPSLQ
row,Compound,Ki [nM]
1,"CN1C(=O)[C@@H](NC(=O)c2ncn(Cc3ccccc3)n2)CCn2nc(CN3CC(F)C3)cc21 (single isomer, unassigned) [Example 726]",142
2,"CC(C)[C@@H]1CCCc2nc(C(=O)N[C@H]3COc4cc(F)cc(F)c4NC3=O)nn21 (single isomer, unassigned) [Example 715]",5
3,"CN1C(=O)[C@@H](NC(=O)c2ncn(Cc3ccccc3)n2)CCn2nc(CC3CCOCC3)cc21 [Example 774, 1-benzyl-N-[(6S)-4methyl-5-oxo-2-(tetrahydropyran-4-ylmethyl)-7,8-dihydro-6H-pyrazolo[1,5-a][1,3]diazepin-6-yl]-1,2,4-triazole-3-carboxamide]",37
4,"COCCNCc1cc2n(n1)CCC(NC(=O)c1ncn(Cc3ccccc3)n1)C(=O)N2C (single isomer, unassigned) [Example 784]",225

# Same assay, conditions: human RIP1 kinase domain (2-375), 50 uM ATP, 2 hours incubation, Transcreener ADP assay; read-out: RIP1 Ki
row,Compound,Ki [nM]
1,"CCn1nc(C(=O)N[C@H]2COc3ccccc3N(C)C2=O)c2c1CC[C@@H](C(F)(F)F)C2 (single isomer, unassigned) [Example 184]",407
2,"CCC1(C)Cc2c(C(=O)N[C@H]3COc4ccccc4N(C)C3=O)n[nH]c2CO1 (stereo partly drawn) [Example 194, 5-ethyl-5-methyl-N-((S)-5-methyl-4-oxo-2,3,4,5-tetrahydrobenzo[b][1,4]oxazepin-3-yl)-1,4,5,7-tetrahydropyrano[3,4-c]pyrazole-3-carboxamide]",167
3,"CN1C(=O)C(NC(=O)c2ncn(Cc3ccccc3)n2)CCn2nc(-c3ccccc3)cc21 (centres unmarked) [Example 208, 1-benzyl-N-(4-methyl-5-oxo-2-phenyl-5,6,7,8-tetrahydro-4H-pyrazolo[1,5-a][1,3]diazepin-6-yl)-1H-1,2,4-triazole-3-carboxamide]",120
4,"CN1C(=O)[C@@H](NC(=O)c2nc3n(n2)C(c2ccccc2)CC3)CCn2nccc21 (stereo partly drawn) [Example 124, N—((S)-4-methyl-5-oxo-5,6,7,8-tetrahydro-4H-pyrazolo[1,5-a][1,3]diazepin-6-yl)-5-phenyl-6,7-dihydro-5H-pyrrolo[1,2-b][1,2,4]triazole-2-carboxamide]",76.8
5,"CN1C(=O)[C@@H](NC(=O)c2cc3c(cn2)COC3(C)CC(F)(F)F)CCn2nccc21 (stereo partly drawn) [Example 106, 1-methyl-N—((S)-4-methyl-5-oxo-5,6,7,8-tetrahydro-4H-pyrazolo[1,5-a][1,3]diazepin-6-yl)-1-(2,2,2-trifluoroethyl)-1,3-dihydrofuro[3,4-c]pyridine-6-carboxamide]",834
6,"CN1C(=O)[C@@H](NC(=O)c2n[nH]c3ccc(C#N)cc23)COc2ccccc21 [Example 83, (S)-5-cyano-N-(5-methyl-4-oxo-2,3,4,5-tetrahydrobenzo[b][1,4]oxazepin-3-yl)-1H-indazole-3-carboxamide]",167

# Same assay, conditions: human RIP1 kinase domain (2-375), Transcreener ADP assay, 50 uM ATP, 2 hours incubation; read-out: RIP1 Ki
row,Compound,Ki [nM]
1,"CN1C(=O)[C@H](NC(=O)c2nnc(Cc3ccccc3)[nH]2)CCn2nc(C3CC3(F)F)cc21 (stereo partly drawn) [Example 286, 5-benzyl-N-((6R)-2-(2,2-difluorocyclopropyl)-4-methyl-5-oxo-5,6,7,8-tetrahydro-4H-pyrazolo[1,5-a][1,3]diazepin-6-yl)-4H-1,2,4-triazole-3-carboxamide]",92.4
2,"CN1C(=O)C(NC(=O)c2ncn(CC3CCC(F)(F)CC3)n2)CCn2nc(C3CC3)cc21 (centres unmarked) [Example 255, N-(2-cyclopropyl-4-methyl-5-oxo-5,6,7,8-tetrahydro-4H-pyrazolo[1,5-a][1,3]diazepin-6-yl)-1-((4,4-difluorocyclohexyl)methyl)-1H-1,2,4-triazole-3-carboxamide]",421
3,"CC[C@@]1(C)OCc2cnc(C(=O)NC3CCn4ccnc4N(C)C3=O)cc21 (stereo partly drawn) [Example 233, (1R)-1-ethyl-1-methyl-N-(9-methyl-8-oxo-6,7,8,9-tetrahydro-5H-imidazo [1,2-a][1,3]diazepin-7-yl)-1,3-dihydrofuro[3,4-c]pyridine-6-carboxamide]",2000
4,"CN1C(=O)[C@@H](NC(=O)c2ncn(Cc3cc(F)cc(F)c3)n2)CCn2nc(C3CC3)cc21 [Example 303, (S)—N-(2-cyclopropyl-4-methyl-5-oxo-5,6,7,8-tetrahydro-4H-pyrazolo[1,5-a][1,3]diazepin-6-yl)-1-(3,5-difluorobenzyl)-1H-1,2,4-triazole-3-carboxamide]",18.5

# Same assay, conditions: read-out: RIP1 Ki
row,Compound,Ki [nM]
1,"C[C@H]1CCc2[nH]nc(C(=O)N[C@H]3COc4ccccc4N(C)C3=O)c2C1 [Example 55, (S)-5-methyl-N-((S)-5-methyl-4-oxo-2,3,4,5-tetrahydrobenzo[b][1,4]oxazepin-3-yl)-4,5,6,7-tetrahydro-1H-indazole-3-carboxamide]",103

# Same assay, conditions: tight-binding apparent inhibition constant; human RIP1 kinase domain (2-375) 50 nM, 50 uM ATP, 2 hours; read-out: Ki
row,Compound,Ki [nM]
1,"CN1C(=O)[C@@H](NC(=O)c2ncn(Cc3ccccc3)n2)CCn2nc(C[C@@H]3CC3(F)F)cc21 [Example 548, 1-benzyl-N-(6S)-4-methyl-5-oxo-2-[(1R)-2,2-difluorocyclopropylmethyl]-7,8-dihydro-6H-pyrazolo[1,5-a][1,3]diazepin-6-yl-1,2,4-triazole-3-carboxamide]",9.7
2,CN1C(=O)[C@@H](NC(=O)c2ncc3cnn(-c4c(F)cccc4F)c3n2)COc2ccccc21 [Example 595],4.7
3,"CN1C(=O)[C@@H](NC(=O)c2nc3n(n2)[C@@H](c2ccccc2)CC3)CCn2nccc21 (single isomer, unassigned) [Example 362]",896
4,"Cc1cc(F)c2c(c1)OC[C@H](NC(=O)c1nc3n(n1)CCO[C@@H]3c1ccccc1)C(=O)N2 [Example 643, (8R)-8-phenyl-N-[(3S)-6-fluoro-8-methyl-4-oxo-3,5-dihydro-2H-1,5-benzoxazepin-3-yl]-6,8-dihydro-5H-[1,2,4]triazolo[5,1-c][1,4]oxazine-2-carboxamide]",360
5,"Cc1cc2n(n1)CC[C@H](NC(=O)c1nnc(Cc3ccc(F)cc3)[nH]1)C(=O)N2C [Example 484, 5-[(4-fluorophenyl)methyl]-N-(6S)-2,4-dimethyl-5-oxo-7,8-dihydro-6H-pyrazolo[1,5-a][1,3]diazepin-6-yl-4H-1,2,4-triazole-3-carboxamide]",82
6,"CN1C(=O)[C@@H](NC(=O)c2nc3n(n2)CC[C@@H]3c2ccccc2)COc2ccccc21 [Example 573, (7R)-7-phenyl-N-[(3S)-5-methyl-4-oxo-2,3-dihydro-1,5-benzoxazepin-3-yl]-6,7-dihydro-5H-pyrrolo[1,2-b][1,2,4]triazole-2-carboxamide]",17
7,"Cc1ncccc1Cn1cnc(C(=O)N[C@H]2CCn3nccc3N(C)C2=O)n1 [Example 663, 1-[(2-methyl-3-pyridyl)methyl]-N-(6S)-4-methyl-5-oxo-7,8-dihydro-6H-pyrazolo[1,5-a][1,3]diazepin-6-yl-1,2,4-triazole-3-carboxamide]",420
8,"CCC1CCCc2nc(C(=O)N[C@H]3CCn4nccc4N(C)C3=O)nn21 (stereo partly drawn) [Example 379, 5-ethyl-N—((S)-4-methyl-5-oxo-5,6,7,8-tetrahydro-4H-pyrazolo[1,5-a][1,3]diazepin-6-yl)-5,6,7,8-tetrahydro-[1,2,4]triazolo[1,5-a]pyridine-2-carboxamide]",374
9,"CN1C(=O)[C@@H](NC(=O)c2nc3cccc(-c4c(F)cccc4F)n3n2)CCn2nccc21 [Example 394, (S)-5-(2,6-difluorophenyl)-N-(4-methyl-5-oxo-5,6,7,8-tetrahydro-4H-pyrazolo[1,5-a][1,3]diazepin-6-yl)-[1,2,4]triazolo[1,5-a]pyridine-2-carboxamide]",6.04
10,"CN1C(=O)[C@@H](NC(=O)c2ncn(Cc3ncccc3F)n2)CCn2nccc21 [Example 653, 1-[(3-fluoro-2-pyridyl)methyl]-N-(6S)-4-methyl-5-oxo-7,8-dihydro-6H-pyrazolo[1,5-a][1,3]diazepin-6-yl-1,2,4-triazole-3-carboxamide]",110
11,"Cc1cc(F)c2c(c1)OC[C@H](NC(=O)c1nc3n(n1)[C@H](C(C)C)CC3)C(=O)N2 (single isomer, unassigned) [Example 352]",96.9
12,"COc1ccccc1Cn1cnc(C(=O)N[C@H]2CCn3nccc3N(C)C2=O)n1 [Example 587, 1-[(2-methoxyphenyl)methyl]-N-(6S)-4-methyl-5-oxo-7,8-dihydro-6H-pyrazolo[1,5-a][1, 3]diazepin-6-yl-1,2,4-triazole-3-carboxamide]",47
13,"CN1C(=O)[C@@H](NC(=O)c2nc3n(n2)[C@@H](c2ccccc2)CCC3)CCn2nccc21 (racemic) [Example 385, (R)—N—((S)-4-methyl-5-oxo-5,6,7,8-tetrahydro-4H-pyrazolo[1,5-a][1,3]diazepin-6-yl)-5-phenyl-5,6,7,8-tetrahydro-[1,2,4]triazolo[1,5-a]pyridine-2-carboxamide]",24.4
14,"CN1C(=O)[C@@H](NC(=O)c2ncc3c(n2)C2(CCCOC2)OC3)COc2ccccc21 (stereo partly drawn) [Example 511, N-[(3S)-5-methyl-4-oxo-2,3-dihydro-1,5-benzoxazepin-3-yl]spiro[5H-furo[3,4-d]pyrimidine-7,3′-tetrahydropyran]-2-carboxamide]",83
15,"CN1C(=O)[C@@H](NC(=O)c2nc3n(n2)[C@@H](c2ccccc2F)CC3)CCn2nccc21 [Example 465, (R)-5-(2-fluorophenyl)-N—((S)-4-methyl-5-oxo-5,6,7,8-tetrahydro-4H-pyrazolo[1,5-a][1,3]diazepin-6-yl)-6,7-dihydro-5H-pyrrolo[1,2-b][1,2,4]triazole-2-carboxamide]",9
16,"CC[C@@H]1CCc2nc(C(=O)N[C@H]3COc4ccccc4N(C)C3=O)nn21 (single isomer, unassigned) [Example 359]",303
17,"Cc1nc(C)n2c1N(C)C(=O)[C@H](NC(=O)c1ncn(Cc3ccccc3)n1)CC2 [Example 608, 1-benzyl-N-(3R)-1,7,9-trimethyl-2-oxo-4,5-dihydro-3H-imidazo[1,5-a][1,3]diazepin-3-yl-1,2,4-triazole-3-carboxamide]",190

# Source: patent US10988459B2 (priority 2015, dated 2021)
